Reference: BindingDB's records for doi:10.1021/jm00100a033 (Roche Research Center, 1992)
*1 amine or outer side, *2 acyl side, *3 side chain or, on linkers, in order; H or OH if unused. Where a SMILES comes first, the peptide text is derived from it. Side-chain parts run from the residue outwards. [ ]: non-standard residue; d: D form. The star is where a group is joined. ξ: configuration not given here. Thz(5,5-Me2) = CC1(C)SCN[C@@H]1C(=O)O; NH(2-Me-phenyl) = Cc1ccccc1N*; ξF = NC(Cc1ccccc1)C(=O)O; Boc = CC(C)(C)OC(=O)*; CO = O=C([*:1])[*:2]

Target: Gastrin/cholecystokinin type B receptor (Bos taurus)
Test: Inhibitory activity against cholecystokinin type B receptor from bovine striatal binding assay

Cc1ccccc1NC(=O)NCCCC[C@H](NC(=O)[C@H](Cc1c[nH]c2ccccc12)NC(=O)OC(C)(C)C)C(=O)N1CSC(C)(C)[C@H]1C(=O)NC(Cc1ccccc1)C(N)=O (stereo partly specified) [[1-[1-[4-(1-Carbamoyl-2-phenyl-ethylcarbamoyl)-5,5-dimethyl-thiazolidine-3-carbonyl]-5-(3-o-tolyl-ureido)-pentylcarbamoyl]-2-(1H-indol-3-yl)-ethyl]-carbamic acid tert-butyl ester] (Boc-WK([CO-NH(2-Me-phenyl)])[Thz(5,5-Me2)][ξF]-NH2)
IC50: 7.4 µM
